The record followed here is ChEMBL document CHEMBL1201862, “PubChem BioAssay data set” (2004).

Active and inactive are the calls of the source.

Test [1] in a line: nonselective inhibitors of cellular cAMP signaling, dose response, counter-screen for MC4R biased antagonist project, cell-based, TR-FRET cAMP detection (AID 602305).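 Note: U2OS cells stimulated with forskolin near its EC80 as the cAMP inducer; potency is for inhibition of forskolin-stimulated cAMP signaling.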 It counts as functional. Background: The purpose of a counterscreen is to sort out artefacts and off-target activity.
The next test concerns the target Melanocortin receptor 4 (Homo sapiens, UniProt P32245). The experiment in a line: MC4R antagonist potency on cAMP, dose response, cell-based, TR-FRET, biased antagonists (AID 602298).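 Note: antagonist potency against agonist-stimulated cAMP production.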 It counts as functional. For orientation: Time-resolved FRET reads energy transfer from a long-lived donor to a nearby acceptor.
Test [2] deals with T1, Sentrin-specific protease 6 (Homo sapiens, UniProt Q9GZR1).
T1 sequence (Q9GZR1 whole entry): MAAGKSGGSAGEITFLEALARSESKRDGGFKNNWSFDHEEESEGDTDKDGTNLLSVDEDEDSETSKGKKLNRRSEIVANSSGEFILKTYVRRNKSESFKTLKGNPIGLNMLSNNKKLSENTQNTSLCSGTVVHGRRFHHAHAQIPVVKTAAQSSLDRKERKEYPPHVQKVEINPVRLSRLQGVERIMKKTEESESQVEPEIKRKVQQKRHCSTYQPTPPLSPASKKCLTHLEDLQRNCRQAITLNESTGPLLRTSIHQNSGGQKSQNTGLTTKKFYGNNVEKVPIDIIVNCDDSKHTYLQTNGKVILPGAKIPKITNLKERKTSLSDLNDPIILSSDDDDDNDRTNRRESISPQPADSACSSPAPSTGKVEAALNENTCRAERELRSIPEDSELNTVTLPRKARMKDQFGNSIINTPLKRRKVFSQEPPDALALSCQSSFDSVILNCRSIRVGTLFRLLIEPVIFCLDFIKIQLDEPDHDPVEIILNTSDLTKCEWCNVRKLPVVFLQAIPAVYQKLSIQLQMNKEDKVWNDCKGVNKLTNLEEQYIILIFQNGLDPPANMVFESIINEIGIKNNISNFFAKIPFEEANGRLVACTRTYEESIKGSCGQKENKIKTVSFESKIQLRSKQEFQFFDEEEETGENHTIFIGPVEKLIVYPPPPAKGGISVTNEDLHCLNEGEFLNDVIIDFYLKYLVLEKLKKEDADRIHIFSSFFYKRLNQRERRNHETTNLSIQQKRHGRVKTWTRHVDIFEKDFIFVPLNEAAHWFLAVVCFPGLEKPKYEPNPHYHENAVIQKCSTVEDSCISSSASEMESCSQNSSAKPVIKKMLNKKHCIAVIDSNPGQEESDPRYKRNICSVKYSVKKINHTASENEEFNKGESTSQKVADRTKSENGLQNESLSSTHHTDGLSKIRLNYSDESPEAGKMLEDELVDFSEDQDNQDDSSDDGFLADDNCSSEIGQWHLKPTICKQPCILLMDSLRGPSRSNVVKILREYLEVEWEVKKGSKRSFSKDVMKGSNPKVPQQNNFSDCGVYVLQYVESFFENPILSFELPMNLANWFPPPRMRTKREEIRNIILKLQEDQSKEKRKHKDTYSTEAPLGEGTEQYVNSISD
The test is described as follows: SENP6 protease inhibitors, SAR follow-up, biochemical, luminescence, set 2 (AID 588598). It is filed as functional.

Test [3] addresses T2, Sentrin-specific protease 8 (Homo sapiens, UniProt Q96LD8).
T2 sequence (Q96LD8 whole entry): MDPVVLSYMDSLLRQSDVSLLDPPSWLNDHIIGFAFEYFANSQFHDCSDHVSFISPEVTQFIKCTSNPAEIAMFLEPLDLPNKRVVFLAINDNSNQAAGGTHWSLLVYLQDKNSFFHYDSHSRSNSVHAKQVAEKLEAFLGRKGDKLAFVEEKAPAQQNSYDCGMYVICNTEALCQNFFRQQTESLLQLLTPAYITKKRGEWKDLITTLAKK
The experiment in a line: SENP8 protease inhibitors, SAR follow-up, biochemical, luminescence, set 2 (AID 588601). It counts as functional.

For test [4], the target named is T3, Sentrin-specific protease 7 (Homo sapiens, UniProt Q9BQF6).
T3 sequence (Q9BQF6 whole entry): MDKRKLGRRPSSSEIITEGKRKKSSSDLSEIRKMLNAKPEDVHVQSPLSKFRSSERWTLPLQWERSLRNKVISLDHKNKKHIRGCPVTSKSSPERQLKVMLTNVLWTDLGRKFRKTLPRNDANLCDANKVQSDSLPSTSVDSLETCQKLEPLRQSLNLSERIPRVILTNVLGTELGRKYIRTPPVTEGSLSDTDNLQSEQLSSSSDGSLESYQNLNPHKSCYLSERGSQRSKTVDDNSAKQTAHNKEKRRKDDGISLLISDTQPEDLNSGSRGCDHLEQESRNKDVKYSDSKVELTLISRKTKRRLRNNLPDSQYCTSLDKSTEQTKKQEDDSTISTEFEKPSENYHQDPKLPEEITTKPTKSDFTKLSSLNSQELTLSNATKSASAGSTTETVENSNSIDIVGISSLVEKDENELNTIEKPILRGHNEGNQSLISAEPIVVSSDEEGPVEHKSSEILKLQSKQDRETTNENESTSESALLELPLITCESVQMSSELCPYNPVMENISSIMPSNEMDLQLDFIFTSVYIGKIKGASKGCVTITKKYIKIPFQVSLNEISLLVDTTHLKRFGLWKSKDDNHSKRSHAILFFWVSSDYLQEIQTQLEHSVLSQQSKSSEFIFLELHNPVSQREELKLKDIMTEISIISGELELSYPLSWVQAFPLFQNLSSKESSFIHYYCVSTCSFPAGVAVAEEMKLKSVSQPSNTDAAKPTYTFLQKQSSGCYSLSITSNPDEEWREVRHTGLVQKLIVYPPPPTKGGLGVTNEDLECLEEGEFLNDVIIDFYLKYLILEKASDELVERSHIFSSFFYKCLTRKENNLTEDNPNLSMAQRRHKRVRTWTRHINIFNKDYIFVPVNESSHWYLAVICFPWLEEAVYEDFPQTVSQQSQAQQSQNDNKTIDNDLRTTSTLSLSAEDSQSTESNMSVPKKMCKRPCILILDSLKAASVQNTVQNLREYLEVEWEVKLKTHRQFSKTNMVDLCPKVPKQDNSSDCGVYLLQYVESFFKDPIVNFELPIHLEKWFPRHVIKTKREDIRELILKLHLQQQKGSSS
The experiment in a line: SENP7 protease inhibitors, SAR follow-up, biochemical, luminescence, set 2 (AID 588600). It counts as functional.

For a further test, the target named is T4, Caspase-3 (Homo sapiens, UniProt P42574).
T4 sequence (P42574 whole entry): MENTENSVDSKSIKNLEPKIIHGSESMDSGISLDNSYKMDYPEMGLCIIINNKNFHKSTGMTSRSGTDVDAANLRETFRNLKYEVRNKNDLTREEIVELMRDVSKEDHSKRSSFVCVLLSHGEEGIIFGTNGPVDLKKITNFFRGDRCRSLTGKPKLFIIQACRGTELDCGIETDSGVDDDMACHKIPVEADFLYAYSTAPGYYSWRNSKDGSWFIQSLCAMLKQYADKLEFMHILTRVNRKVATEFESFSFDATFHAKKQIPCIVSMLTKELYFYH
The test is described as follows: caspase-3 inhibitors as off-family protease, SAR follow-up, selectivity assay for SENP protease inhibitor project, biochemical, luminescence, set 2 (AID 588599). It counts as functional.

For another test, the system named is Jurkat. The experiment in a line: SAR Analysis of small molecule inhibitors of both B-cell and T-cell specific antigen receptor-induced NF-kB activation in a Jurkat cell line using a luminescence assay. [Related pubchem assays (depositor defined):AID435003, AID435022, AID465, AID489029]. It counts as functional, cell-based. The conditions noted are these: Homo sapiens.

For test [5], the system named is HEK293. The test is described as follows: SAR Analysis of small molecule inhibitors of both B-cell and T-cell specific antigen receptor-induced NF-kB activation in a HEK-293T cell line using a luminescence assay. [Related pubchem assays (depositor defined):AID435003, AID435022, AID465, AID489019, AID489029]. The conditions noted are these: Homo sapiens. It counts as functional, cell-based.

The test system of test [6] is HEK293. The experiment in a line: cytotoxicity in HEK293T NF-kB-Luc cells, SAR follow-up, cytotoxicity control for NF-kB activator project, cell-based, resazurin fluorescence (AID 493251). It counts as functional. The conditions noted are these: Homo sapiens. In general terms: The colour change of resazurin is a common sign of viable cells or microbes.
The subject of test [7] is Candida albicans. The experiment in a line: growth inhibition of azole-resistant C. albicans, dose response, CaCi-8 strain, Alamar Blue, dry powder, set 3 (AID 488905). It counts as functional, organism-based.
Test [8] concerns Candida albicans. The test is described as follows: reversal of fluconazole resistance in C. albicans, dose response, CaCi-2 strain, Alamar Blue, dry powder, set 3 (AID 488907). It counts as functional, organism-based.

Chain of Melanocortin receptor 4 (P32245 whole entry): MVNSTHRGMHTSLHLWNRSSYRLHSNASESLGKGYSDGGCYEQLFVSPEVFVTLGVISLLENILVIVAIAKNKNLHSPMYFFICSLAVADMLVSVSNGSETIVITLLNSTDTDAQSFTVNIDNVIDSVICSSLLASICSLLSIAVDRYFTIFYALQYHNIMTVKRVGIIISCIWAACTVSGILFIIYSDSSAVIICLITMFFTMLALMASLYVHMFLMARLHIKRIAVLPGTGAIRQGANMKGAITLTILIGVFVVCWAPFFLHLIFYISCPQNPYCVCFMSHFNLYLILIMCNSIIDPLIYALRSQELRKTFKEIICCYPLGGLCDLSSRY

`CC(=O)Oc1ccc2nc(-c3ccc(Br)o3)oc(=O)c2c1`: the IC50 (in [1]; on Melanocortin receptor 4) was > 64.6 µM (inactive) in each case.
With `CN(C(=O)c1cccc(Br)c1)c1nc2ccccc2s1`, the IC50 (in test [2]; in test [3]; in test [4]; on Caspase-3) was > 99 µM (inactive) throughout.
With `COc1cc(NS(=O)(=O)c2ccccc2)c2ncccc2c1`, the IC50 (commonly the point on the concentration scale where inhibition reaches its midpoint) in the test on Jurkat is 1.32 µM (active); with HEK293 [5], 70.7 µM (inactive); in the test on HEK293 [6] it was 59.5 µM (inactive).
Regarding `Cc1ccc(N2CCN(C(=O)c3ccc(Cl)cc3)CC2)nc1`, the values for the AC50 in the test on Candida albicans [7] and in the test on Candida albicans [8] were 25.4 µM (active) and 0.413 µM (active), respectively.
